# Test results as given in patent publication US20030191188A1, “Method for treating migraine symptoms with ibuprofen and salts thereof” (priority 1999, published 2003).
# Columns and labels:
# [1] = test system: Subjects suffering from photophobia due to a migraine; test: Treatment of photophobia due to a migraine, placebo-controlled subject study; format: in vivo; conditions: 200 or 400 milligrams of ibuprofen vs placebo; approximately 650 subjects; at time of two hours or longer
# Excerpt: FIG. 1 depicts the percentage of subjects with reduced photophobia over time after treatment with ibuprofen. Subjects suffering from photophobia due to a migraine were either given a placebo or treated with 200 or 400 milligrams of ibuprofen. Approximately 650 subjects were in the study. Some subjects were given placebos, while others were given either 200 or 400 milligrams of ibuprofen.
# [2] = test system: Subjects suffering from phonophobia due to a migraine; test: Treatment of phonophobia due to a migraine, placebo-controlled subject study; format: in vivo; conditions: 200 or 400 milligrams of ibuprofen in tablet form vs placebo; at time of two hours or longer
# Excerpt: FIG. 2 depicts the percentage of subjects with reduced phonophobia over time over time after treatment with ibuprofen. Subjects suffering from phonophobia due to a migraine were either given a placebo or treated with 200 or 400 milligrams of ibuprofen in tablet form.
compound,measurement,setting,value
CC(C)Cc1ccc(C(C)C(=O)O)cc1 (centres unmarked) [ibuprofen],"relief of photophobia (percentage of subjects with reduced photophobia over time, FIG. 1)",[1],effective in relieving photophobia
same,"relief of phonophobia (percentage of subjects with reduced phonophobia over time, FIG. 2); text prints photophobia",[2],effective in relieving photophobia
